Publication PMC2917377 (Cytometry. Part A : the journal of the International …, 2009)
Non-standard residues stand in square brackets, D forms with d. No end group written: not given here. *: point of attachment. Nle = CCCC[C@H](N)C(=O)O; For = O=C*

Assays:
FPRL1 = details: cited from earlier work
FPR = details: read-out: Kd for FPR; cited from earlier work
[1] = target: formyl peptide receptor-like 1; details: cited from earlier work
WKYMVm = experiment: competition
WKGMVm = target: T1, WKGMVm; experiment: competition flow cytometry
T1 chain: WKGMV[dM]

WKRMVm = target: T2, WKRMVm; experiment: competition flow cytometry
T2 chain: WKRMV[dM]

## N-formyl -Met-Leu-Phe-Lys-fluorescein (For-MLFK(fluorescein)) [fMLFK-FITC]
FPRL1
  Binding to FPRL1: does not bind
FPR
  Kd: 3 nM

## W[Nle]YM [WNleYM]
[1]
  EC50: 5.34 nM

B1: FPRL1 (protein)
chain: METNFSTPLNEYEEVSYESAGYTVLRILPLVVLGVTFVLGVLGNGLVIWVAGFRMTRTVTTICYLNLALADFSFTATLPFLIVSMAMGEKWPFGWFLCKLIHIVVDINLFGSVFLIGFIALDRCICVLHPVWAQNHRTVSLAMKVIVGPWILALVLTLPVFLFLTTVTIPNGDTYCTFNFASWGGTPEERLKVAITMLTARGIIRFVIGFSLPMSIVAICYGLIAAKIHKKGMIKSSRPLRVLTAVVASFFICWFPFQLVALLGTVWLKEMLFYGKYKIIDILVNPTSSLAFFNSCLNPMLYVFVGQDFRERLIHSLPTSLERALSEDSAPTNDTAANSASPPAETELQAM
WKYMVm
  IC50: 1.8 nM
WKGMVm
  IC50: 176 nM
WKRMVm
  IC50: 705 nM
